In patent publication US20060063162A1, “Biological marker for inflammation” (priority 2004, published 2006):

Legend:
Assay type in all cases: cell-based, human
[1] = test system: PSG expression in coronary arterial smooth muscle cells; assay: Microarray analysis of PSG gene expression in coronary artery smooth muscle cells after atherogenic stimuli; details: for PSG1 expression response / PSG 2 expression / PSG6 expression: SMCs from coronary artery; for PSG expression: coronary arterial smooth muscle cells, after treatment
From the text: (§1) Vein and artery respond differently to atherogenic lesion under different conditions. […] However, venous bypass grafts can develop accelerated atherosclerosis in vein graft disease for patients after bypass surgery. […] This could possibly be explained by the different roles of endothelial and smooth muscle cells in the development of atherosclerosis. Endothelial cells (EC) are critical in the initiation of atherosclerosis, while smooth muscle cells (SMC) are closely related to the evolution of the atheroma. The global gene expression responses to various atherogenic stimulations between human venous and arterial cells have been determined to identify genes that may contribute to different susceptibilities to atherosclerosis.
(§2) When gene expression of untreated saphenous vein endothelial cells (SVEC) and coronary artery endothelial cells (CAEC) were compared by microarray analysis, five isoforms (PSG1, PSG3, PSG6, PSG7 and PSG9) out of 9 isoforms in the arrays were higher (>1.5 fold and P<0.005) in SVEC than CAEC. In untreated saphenous vein smooth muscle cells (SVSM) and coronary artery smooth muscle cells (CASM), all 9 isoforms of PSGs in the arrays are expressed higher in SVSM than CASM (See Table 1). It is unlikely a false positive result from arrays, since the result was obtained from 4 separate primary cultures from two-donors and more than 5 microarray data sets, and multiple PSG isoforms had similar changes. […] In basal state, PSG expression is higher in vein than artery.
Oxidized LDL (OxLDL), a key atherogenic factor, pro-inflammatory cytokines TNFα and IL1β, as well as cytokines regulating cell proliferation, differentiation and migration like PDGF and TGFβ all up-regulate PSG expression in coronary arterial smooth muscle cells.

[2] = test system: PSG expression in endothelial cells from vein; assay: Microarray analysis of PSG gene expression in saphenous vein endothelial cells after atherogenic stimuli; details: after treatment
From the text: as §1
When gene expression of untreated saphenous vein endothelial cells (SVEC) and coronary artery endothelial cells (CAEC) were compared by microarray analysis, five isoforms (PSG1, PSG3, PSG6, PSG7 and PSG9) out of 9 isoforms in the arrays were higher (>1.5 fold and P<0.005) in SVEC than CAEC. In untreated saphenous vein smooth muscle cells (SVSM) and coronary artery smooth muscle cells (CASM), all 9 isoforms of PSGs in the arrays are expressed higher in SVSM than CASM (See Table 1). […]

[3] = test system: PSG expression in endothelial cells from artery; assay: Microarray analysis of PSG gene expression in coronary artery endothelial cells after atherogenic stimuli; details: after treatment
[4] = test system: PSG expression in SMCs from saphenous vein; assay: Microarray analysis of PSG gene expression in saphenous vein smooth muscle cells after atherogenic stimuli
From the text: as §1, §2
The gene expression of PSG isoforms is quite different between the two SMCs. In SMCs from saphenous vein, TGFβ and TNFα down-regulate the expression of PSG1. TGFβ also down-regulates PSG9.

Substance	PSG1 expression response [1]	PSG 2 expression [1]	PSG6 expression [1]	PSG expression [1]	PSG expression [2]	PSG expression [3]	PSG1 expression [4]	PSG9 expression [4]
IL1β: pro-inflammatory cytokine	opposite responses	up-regulated	up-regulated	up-regulate	No significant change	No significant change		
PDGF		up-regulated	up-regulated	up-regulate				
TGFβ	opposite responses	up-regulated	up-regulated	up-regulate			down-regulate	down-regulates
TNFα		up-regulated	up-regulated	up-regulate	No significant change	No significant change	down-regulate	
